What was measured:
[1] = system: pulmonary artery pressure (PAP); assay: Rat model of acute PAH: U-44069 infusion, pulmonary artery pressure by telemetry; type: in vivo
Method: This study utilized administration of a thromboxane agonist to elevate pulmonary artery pressure (PAP) in the rat as a model for PAH. Treprostinil was administered to the rats by oral gavage (UT-15C), nose-only inhalation (Tyvaso) or in a combined oral+inhalation regimen, followed by PAP assessment.
Experimental Design: For this study, a rat model of acute PAH was developed with the ability to measure real-time PAP by telemetry from a catheter surgically implanted into the rat pulmonary artery. To induce PAH in this model, a 15 minute intravenous (IV) infusion of the thromboxane agoinst, U44069, was administered, and PAP was monitored and recorded every 5 seconds.
To establish this model, initial testing and optimization of the concentration and infusion rate of the U-44069 was performed to best achieve elevated PAP. […] Following the preliminary individual oral and inhaled treprostinil range-finding studies, a combination administration of oral+inhaled treprostinil was performed.
The animals received U-44069 (0.5 mg/mL) at a dose rate of 10 mL/kg/hr for 15 minutes for a total dose of 1.25 mg/kg/dose. The animals received 3 to 4 IV doses/session, as detailed below.
• 1. Animals were treated as follows: • 2. IV for 15 minutes • 3. Oral gavage, as soon as practicable following the 15-minute infusion • 4. 1 hour following gavage, IV for 15 minutes. • 5. 2 hours following gavage, IV for 15 minutes Dose 2, inhalation:
Animals were treated as follows: • 1. IV for 15 minutes • 2. Inhalation exposure, as soon as practicable following the 15-minute infusion • 3. Approximately 5 minutes after inhalation completion, IV for 15 minutes. • 4. 1 hour later, IV for 15 minutes Dose 3, inhalation and oral gavage:
Animals were treated as follows: • 1. IV for 15 minutes • 2. Oral gavage, as soon as practicable following the 15-minute infusion • 3. Inhalation exposure, as soon as practicable following oral gavage. All animals were exposed to the low dose (5.26 μg/kg). • 4. Approximately 5 minutes after inhalation completion, IV for 15 minutes. • 5. 1 hour later, IV for 15 minutes • 6. 2 hours after oral gavage, IV for 15 minutes for 2 animals (1 low and 1 high oral dose) Inhaled, Oral and Combination Treprostinil Dosing Results: […]

[2] = cited from earlier work
[3] = low pH (stomach); cited from earlier work

CCCCC[C@H](O)/C=C/[C@H]1[C@@H]2CO[C@@H](C2)[C@@H]1C/C=C\CCCC(=O)O [U-44069]
maximum PAP during U-44069 infusion relative to baseline ([1]; IV U-44069 0.5 mg/mL, 10 mL/kg/hr for 15 minutes, all occasions except animal 2001): at least 150 % of the baseline

CCCCC[C@H](O)/C=C/[C@@H]1[C@H]2C/C(=C/CCCC(=O)O)O[C@H]2C[C@H]1O [prostacyclin]
half-life in the blood [2]: 3 to 5 min | stability at low pH [3]: inactivated by a low pH

CCCCC[C@H](O)CC[C@@H]1[C@H]2Cc3cccc(OCC(=O)O)c3C[C@H]2C[C@H]1O [treprostinil]
PAP reduction when oral treprostinil added to low dose inhaled treprostinil ([1]; combination dosing regimen, in magnitude or duration): additional PAP reduction was observed | PAP following inhalation exposure (immediately post dosing) ([1]; inhalation 5.26, 10.6 or 34.1 μg/kg/day, all dose levels, during U-44069 infusion): approximately 120 % the baseline | PAP at 1 hr post dosing compared to IPD values ([1]; inhalation 5.26, 10.6 or 34.1 μg/kg/day, additional U-44069 injection 1 hour after inhalation): significantly increased | PAP reduction at IPD, combination dosing Group 3 ([1]; low dose inhaled (5.26 μg/kg/day) + high oral gavage, versus individual high dose inhalation (34.1 μg/kg/day), sustained to 1 hr PD): equivalent (#3001) or greater (#3002) | PAP reduction, combination dosing Group 1 ([1]; low dose inhaled (5.26 μg/kg/day) + low (5 mg/kg/dose) oral gavage, versus low dose inhaled alone): sustained effect to 1 hr | PAP decrease at IPD, combination dosing Group 2 ([1]; low dose inhaled (5.26 μg/kg/day) + mid (10 mg/kg/dose) oral gavage, versus individual mid-dose inhalation (10.6 μg/kg/day)): equivalent or greater | PAP after oral gavage ([1]; oral gavage 5, 10 or 15 mg/kg/dose, 1 hr PD and 2 hr PD): decreases in PAP were generally observed in a dose-related fashion | PAP during the PAH condition, any route of administration ([1]; oral gavage, nose-only inhalation or combined): generally reduce PAP

From patent US8969409B2, “Treatment for pulmonary hypertension” (United Therapeutics Corporation, priority 2010, dated 2015)
